Assay results published in ChEMBL document CHEMBL1201862, “PubChem BioAssay data set” (2004).
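Cultured in 96-well plates, cells were exposed to test compound for 48 hours across five concentrations. GI50 = concentration required for 50% inhibition of growth.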 Activity calls are given as the source filed them. Rule as the data show it: active = GI50 up to about 1.1 µM and inactive = higher.

Tests used:
Experiment in all cases: growth of human tumour cells (NCI), 48 h
A498 = tested on: A498
CCRF-CEM = tested on: CCRF-CEM
DU-145 = tested on: DU-145
HCT-15 = tested on: HCT-15
HOP-62 = tested on: HOP-62
HOP-92 = tested on: HOP-92
HT-29 = tested on: HT-29
IGROV-1 = tested on: IGROV-1
LOX IMVI = tested on: LOX IMVI
MCF7 = tested on: MCF7
NCI-H226 = tested on: NCI-H226
NCI-H460 = tested on: NCI-H460
OVCAR-8 = tested on: OVCAR-8
RXF 393 = tested on: RXF 393
SF-268 = tested on: SF-268
SNB-75 = tested on: SNB-75
TK-10 = tested on: TK-10
EKVX = tested on: EKVX
OVCAR-3 = tested on: OVCAR-3
SF-295 = tested on: SF-295

Compound | GI50 (A498) | GI50 (CCRF-CEM) | GI50 (DU-145) | GI50 (HCT-15) [µM] | GI50 (HOP-62) | GI50 (HOP-92) | GI50 (HT-29) | GI50 (IGROV-1) | GI50 (LOX IMVI) | GI50 (MCF7) | GI50 (NCI-H226) | GI50 (NCI-H460) | GI50 (OVCAR-8) | GI50 (RXF 393) | GI50 (SF-268) | GI50 (SNB-75) | GI50 (TK-10) | GI50 (EKVX) | GI50 (OVCAR-3) | GI50 (SF-295)
O=C(Cn1c(=O)oc2ccc(C(=O)c3ccc(F)cc3)cc21)c1ccccc1 | 21 µM (inactive) | > 100 µM (inactive) | > 100 µM (inactive) | > 100 | > 100 µM (inactive) | > 100 µM (inactive) | 42.7 µM (inactive) | > 100 µM (inactive) | > 100 µM (inactive) | > 100 µM (inactive) | > 100 µM (inactive) | 53.5 µM (inactive) | > 100 µM (inactive) | > 100 µM (inactive) | > 100 µM (inactive) | > 100 µM (inactive) | > 100 µM (inactive) |  |  | 
COc1ccc(/C(=N\Nc2ccccn2)c2ccccn2)cc1 | 38.2 µM (inactive) | < 0.01 µM (active) | 0.29 µM (active) | 0.0103 | 0.217 µM (active) | < 0.045 µM (active) | < 0.01 µM (active) | 0.0167 µM (active) |  | < 0.01 µM (active) | < 0.01 µM (active) | < 0.0287 µM (active) | < 0.01 µM (active) | 2.59 µM (inactive) | 0.0311 µM (active) | 0.414 µM (active) |  | < 0.01 µM (active) | < 0.01 µM (active) | 0.301 µM (active)
COc1ccc2c3c([nH]c2c1)CCN(Cc1ccccc1)C3 | 15.1 µM (inactive) | 34.3 µM (inactive) | > 100 µM (inactive) | 17.9 | 21.8 µM (inactive) | 4.35 µM (inactive) | 27.2 µM (inactive) | 73.6 µM (inactive) | 15.8 µM (inactive) | 17.5 µM (inactive) | 22.3 µM (inactive) | 17 µM (inactive) | 48.3 µM (inactive) | 18.3 µM (inactive) | > 100 µM (inactive) | 37.3 µM (inactive) | 24.4 µM (inactive) | 42.8 µM (inactive) |  | 11.5 µM (inactive)
O=c1nc(N2CCN(c3ccccc3)CC2)ccn1C1OC(CO)C(O)C1O (stereo not given) | > 100 µM (inactive) | 35.6 µM (inactive) | > 100 µM (inactive) | > 100 | > 100 µM (inactive) | 24.2 µM (inactive) | 49.2 µM (inactive) | 60.5 µM (inactive) | 94.2 µM (inactive) | 54.6 µM (inactive) | > 100 µM (inactive) | > 100 µM (inactive) | 55.7 µM (inactive) | > 100 µM (inactive) | > 100 µM (inactive) |  | > 100 µM (inactive) | 61.2 µM (inactive) | 56.4 µM (inactive) | 61.5 µM (inactive)
CN(C)C(=S)/N=C1\SC(=N\c2ccccc2)/C(=N/c2ccccc2)N1c1ccc([N+](=O)[O-])cc1 | > 100 µM (inactive) | > 100 µM (inactive) | > 100 µM (inactive) | > 100 | > 100 µM (inactive) | > 100 µM (inactive) | > 100 µM (inactive) | > 100 µM (inactive) |  | > 100 µM (inactive) | > 100 µM (inactive) | > 100 µM (inactive) | > 100 µM (inactive) | 21.8 µM (inactive) |  | > 100 µM (inactive) |  |  | > 100 µM (inactive) | > 100 µM (inactive)
C1CSC2=C(S1)SC1=C(S2)SC(=C2SC3=C(SC4=C(SCCS4)S3)S2)S1 | > 100 µM (inactive) | > 100 µM (inactive) | > 100 µM (inactive) | > 100 | > 100 µM (inactive) | > 100 µM (inactive) | > 100 µM (inactive) | > 100 µM (inactive) |  | > 100 µM (inactive) | > 100 µM (inactive) | > 100 µM (inactive) | > 100 µM (inactive) | > 100 µM (inactive) | > 100 µM (inactive) | 37.7 µM (inactive) | > 100 µM (inactive) | > 100 µM (inactive) | > 100 µM (inactive) | > 100 µM (inactive)
Cc1c/c(=N\c2ccc3c(c2)c(N)cc(C)[n+]3C)nc(N)n1C | > 100 µM (inactive) | > 100 µM (inactive) | > 100 µM (inactive) | > 100 | 87.7 µM (inactive) | > 100 µM (inactive) | > 100 µM (inactive) | > 100 µM (inactive) | > 100 µM (inactive) | > 100 µM (inactive) |  | > 100 µM (inactive) | 86.3 µM (inactive) | > 100 µM (inactive) | > 100 µM (inactive) | > 100 µM (inactive) | > 100 µM (inactive) | > 100 µM (inactive) | > 100 µM (inactive) | > 100 µM (inactive)
COc1ccc(C(O)c2ccccn2)cc1 (stereo not given) | > 100 µM (inactive) |  | > 100 µM (inactive) | > 100 | > 100 µM (inactive) | > 100 µM (inactive) | > 100 µM (inactive) | > 100 µM (inactive) | > 100 µM (inactive) | > 100 µM (inactive) | > 100 µM (inactive) | > 100 µM (inactive) | > 100 µM (inactive) | > 100 µM (inactive) | > 100 µM (inactive) | > 100 µM (inactive) | > 100 µM (inactive) | > 100 µM (inactive) | > 100 µM (inactive) | > 100 µM (inactive)
N#CC1(C#N)C2CCCCC23OC(=N)C1(C#N)C(c1ccccc1)O3 (stereo not given) | 17.8 µM (inactive) | 5.24 µM (inactive) | 20.5 µM (inactive) | 12.4 |  | 15.5 µM (inactive) | 18.2 µM (inactive) | 19 µM (inactive) | 17.3 µM (inactive) | 16.6 µM (inactive) | > 100 µM (inactive) | 19 µM (inactive) | 21 µM (inactive) | 31.8 µM (inactive) | 2.49 µM (inactive) | 0.213 µM (active) | 16.6 µM (inactive) | 23.5 µM (inactive) | 13.6 µM (inactive) | 69 µM (inactive)
CCOC(=O)N/N=C(/N)c1cccc([N+](=O)[O-])c1 | > 100 µM (inactive) | > 100 µM (inactive) | > 100 µM (inactive) | > 100 | > 100 µM (inactive) | > 100 µM (inactive) | > 100 µM (inactive) | > 100 µM (inactive) | > 100 µM (inactive) | > 100 µM (inactive) |  | > 100 µM (inactive) | > 100 µM (inactive) | > 100 µM (inactive) | > 100 µM (inactive) | 80.2 µM (inactive) | > 100 µM (inactive) | > 100 µM (inactive) | > 100 µM (inactive) | > 100 µM (inactive)
COc1ccc(-c2cc(O)c3cc(C)cnc3n2)cc1 | 7.29 µM (inactive) | 3.21 µM (inactive) | 19.2 µM (inactive) | 3.23 | 6.56 µM (inactive) | 13.8 µM (inactive) | 2.21 µM (inactive) | 4.12 µM (inactive) | 6.5 µM (inactive) | 2.72 µM (inactive) | 13 µM (inactive) |  | 4.57 µM (inactive) | 7.94 µM (inactive) | 6.81 µM (inactive) |  | 2.86 µM (inactive) | 37 µM (inactive) |  | 
